In patent US12246026B2, “Ganaxolone for use in treatment of status epilepticus” (Marinus Pharmaceuticals, Inc., priority 2019, dated 2025):
“Also recorded” adds a separate entry of the source.

Legend:
[1] = Toxicology studies in animals on prenatal and neonatal development; assay type: in vivo
Excerpt: Ganaxolone has been administered to infants with severe forms of epilepsy as early as 4 months of age. In clinical trials involving administration of ganaxolone over several weeks, the study drug has been tapered off over a 1 to 2-week period.

[2] = Phase 1 IV ganaxolone pharmacokinetics in healthy subjects; assay type: in vivo, human
Experimental: A Phase I clinical trial evaluating IV ganaxolone formulation was performed. The clinical trial was designed to investigate the safety, pharmacokinetics, and pharmacodynamics of an intravenous bolus of ganaxolone and continuous intravenous infusion of ganaxolone in 30 healthy subjects. Subjects were administered either an intravenous bolus of ganaxolone in an amount of 10-20 mg for a period of 2 minutes to 1 hour, or an intravenous bolus of ganaxolone in an amount of 6 mg for a period of 5 minutes with a continuous intravenous infusion in an amount of 20 mg/hr for a period of 4 hours.
There was little or no delay between the appearance of drug in plasma and a change in the BIS score.

[3] = Phase 2 open-label dose range study, safety
Excerpt: Secondary objectives included assessment of adverse events and evaluation of the pharmacokinetics of IV ganaxolone in patients with SE.

RSE patients = experiment: Phase 2 open-label dose range study, efficacy in RSE patients; assay type: in vivo, human; conditions: for GNX plasma concentration whose acute maintenance was associated with improved seizure control on EEG: PK/PD relationship, FIGS. 13A-13D
Experimental: Eligible patients were treated with continuous adjunctive IV ganaxolone infusion. Initial dosing included a 3-minute bolus dose (25 or 30 mg) with a continuous infusion at rates ranging from 10 to 85 mg/hour for up to 96-hours, followed by an 18-hour study drug taper.
The study enrolled 17 patients divided among 3 dosing cohorts. The IV solution utilizes Captisol® as an excipient for solubilization of ganaxolone. In an agreement with the Food and Drug Administration (FDA), the Captisol exposure for patients participating in Study 1042-SE-2001 was not to exceed 50 g/day. Given the daily Captisol limit, 3 different doses of GNX IV solution were investigated; 500, 650, and 713 mg/day total GNX referred to as the low, medium, and high dose level cohorts, respectively.

subjects with SE = experiment: Phase 2 Study 1042-SE-2001 open-label group, seizure control by EEG; assay type: in vivo, human
Excerpt: Example 2 is an ongoing, double-blind, randomized, placebo-controlled Phase 2 study designed to evaluate the safety, tolerability, and efficacy of adjunctive IV GNX in subjects with SE who have failed initial treatment with benzodiazepines and at least one AED. The study consists of a small open-label group to optimize the infusion parameters and provide a preliminary assessment of safety, efficacy, and tolerability of GNX administration, followed by a double-blind group who will be randomized to receive GNX or placebo in a 1:1 ratio. In both the open-label and double-blind groups, the study drug treatment is adjunctive therapy to standard of care, and subjects will receive a study drug bolus dose with a concurrent continuous infusion treatment with the goal of administering a therapeutic dose as quickly as possible to stop the seizures and prevent permanent neurological damage. Specifically, study drug will be added to the standard of care at the time that the first 2nd-line IV AED has failed and the second 2nd-line IV AED is medically indicated during the treatment of SE. Study drug must be administered with the second-line IV AED as close to the dose initiation of the second 2nd-line IV AED as possible, but before the initiation of the third-line IV anesthetic for burst suppression.
Ganaxolone for this study is a proprietary IV formulation solubilized by Captisol® (betadex sulfobutyl ether sodium). The maximum level of Captisol® will not exceed 50 g/per day. Ganaxolone for IV administration will be provided to the site as individual glass vials containing 3 mg/mL of ganaxolone for the open-label group and 5 mg/mL of ganaxolone for the double-blind group. Placebo for double-blind group IV administration will be provided to the site as blinded matching vials containing 0.9% sodium chloride solution.
Total adjunctive GNX therapy infusion treatment is planned to be 3 or 5 days (including an 18-hour taper). All subjects will have a 3-minute bolus dose with a continuous infusion at the rate from about 10 mg/hour to about 85 mg/hour or from about 18 mg/hr to 80 mg/hr, and an 18-hour taper. Once study drug administration is started it will be delivered for a full 2 or 4 days (48 or 96 hours) prior to tapering. At the end of second day administration, the decision to administer the study drug for an additional 2 days (i.e., for a total of 4 days) will be made. If in the investigator's medical judgment the subject will continue benefitting from study drug administration, ganaxolone will be administered to the additional 2 days.
As of 22 Mar. 2019, 5 subjects were enrolled into the Study 1042-SE-2001 open-label group under the original protocol that limits daily Captisol exposure at 35 g/day. […] The initial EEG pattern post-infusion initiation was described by study physicians as a “light” burst suppression that was maintained for several hours in all subjects. […] It was observed that when GNX exposure was lowered (20 mg/hr for 2 hours and ending with 10 mg/hr for the remaining 18 hours on Day 1) in order not to exceed this limit, seizure control could not be maintained and seizure activity (but not SE) re-occurred as evidenced by EEG changes. […] Seizure activity relapsed when plasma concentrations of GNX decreased <500 ng/mL in 4 out of 5 subjects.

CYP3A4/5 = experiment: Metabolism by CYP enzymes; conditions: human
[4] = Medium cohort, 650 mg/day, n = 4
[5] = Target cohort, 713 mg/day, n = 8

CC(=O)[C@H]1CC[C@H]2[C@@H]3CC[C@H]4C[C@](C)(O)CC[C@]4(C)[C@H]3CC[C@]12C [Ganaxolone, 3α-hydroxy-3β-methyl-5α-pregnan-20-one]
toxicities in prenatal and neonatal development studies [1]: have not demonstrated toxicities
ganaxolone levels in plasma ([2]; all 30 healthy subjects, IV bolus or bolus plus infusion): quantifiable
dose relation of plasma concentrations ([2]; healthy subjects, IV): generally proportional to the administered dose
tolerability of GNX infusion ([3]; 17 RSE patients): generally well-tolerated
participants with SAEs (severe sedation) assessed as related to GNX, leading to early discontinuation ([3]; concomitant CNS depressant medications): 2 participants
reduction in EEG seizure burden (RSE patients; 15 evaluable patients, low, medium and high cohorts): rapid and dose-dependent sustained reduction in EEG seizure burden
No SE Relapse at anytime during the 4-wk follow up period (RSE patients; Low cohort, 500 mg/day, 1 of 2 (1 died)): 50%
No escalation to IV anesthetics within 24 hrs from infusion initiation(Primary Endpoint) (RSE patients; Low cohort, 500 mg/day, n = 5): 100%
No escalation to additional IV AEDs or IV anesthetics for status relapse at any time through 24 hrs after GNX discontinuation (RSE patients; Low cohort, 500 mg/day, n = 5): 60%
Status-free through 24 hrs from infusion initiation (RSE patients; Low cohort, 500 mg/day, n = 5): 100%
No SE Relapse at anytime during the 4-wk follow up period (RSE patients; Medium cohort, 650 mg/day, 2 of 3 (1 ET)): 67%
No escalation to IV anesthetics within 24 hrs from infusion initiation(Primary Endpoint) (RSE patients; [4]): 100%
No escalation to additional IV AEDs or IV anesthetics for status relapse at any time through 24 hrs after GNX discontinuation (RSE patients; [4]): 75%
Status-free through 24 hrs from infusion initiation (RSE patients; [4]): 100%
GNX plasma concentration whose acute maintenance was associated with improved seizure control on EEG (RSE patients): ≥ 500 ng/mL
GNX plasma concentration whose acute maintenance was associated with improved seizure control on EEG (RSE patients; listed as GNX): > 500 ng/mL
No SE Relapse at anytime during the 4-wk follow up period (RSE patients; Target cohort, 713 mg/day, 6 of 6 (1ET, 1 died)): 100%
No escalation to IV anesthetics within 24 hrs from infusion initiation(Primary Endpoint) (RSE patients; [5]): 100%
No escalation to additional IV AEDs or IV anesthetics for status relapse at any time through 24 hrs after GNX discontinuation (RSE patients; [5]): 100%
Status-free through 24 hrs from infusion initiation (RSE patients; [5]): 88%
patients not requiring additional IV AEDS or IV anesthetics for status relapse up to 4 weeks (RSE patients; all cohorts, 14 patients of 17): 82%
patients who achieved and maintained SE cessation within the first 24-hours (RSE patients; all cohorts, 16 patients of 17): 94%
patients not requiring escalation to an IV anesthetic drug for SE control within the first 24-hours (RSE patients; all cohorts, n=17): 100%
Median time to SE cessation from initiation of GNX treatment (RSE patients; all dose groups, n=15 evaluable patients): 5 min
patients with SE cessation achieved in <30 min (RSE patients; evaluable patients): 14 out of 15
duration seizure protection was maintained (subjects with SE; 1 subject, amended protocol): 48 h
time to RSE cessation after starting IV GNX infusion (subjects with SE; 1 subject, amended protocol, Captisol 50 g/day, NCSE due to tumor): ≤ 3 min
seizure relapse on weaning off GNX (subjects with SE; 1 subject, amended protocol, listed as GNX): no seizure relapse; also recorded: without seizure relapse
EEG response after start of GNX (subjects with SE; Subject 004-101, 30 mg bolus, 85 mg/hr): Almost immediately the EEG showed seizure suppression
time of seizure relapse post infusion start (subjects with SE; Subject 004-101, at 20 mg/hr): approximately 5 hours
time at which additional intervention was required post-dose initiation (subjects with SE; Subject 004-102): approximately 42.5 hours
seizure activity on EEG (subjects with SE; Subject 004-102, 60 minutes and 2 hours post-dose initiation): no seizure activity
time of return of concerning EEG pattern post-dose initiation (subjects with SE; Subject 004-102, at 20 mg/hr): 5 to 6 h
time to SE abort after bolus administration (subjects with SE; Subject 006-101): ≤ 1 min
seizure activity on EEG (subjects with SE; Subject 006-101, 60 minutes and 2 hours post-dose initiation): no seizure activity
time of seizure relapse post infusion start (subjects with SE; Subject 006-101, at 20 mg/hr): approximately 6 hours
effect of bolus on SE (subjects with SE; Subject 006-102): SE aborted upon administration of the bolus
seizure activity on EEG (subjects with SE; Subject 006-102, 60 minutes, 2 hours and 4 hours post-dose initiation): no seizure activity
time of seizure relapse post infusion start (subjects with SE; Subject 006-102, at 20 mg/hr): approximately 6 hours
seizure return during treatment (subjects with SE; Subject 015-101, focal convulsive SE): Seizures did not return during the treatment period
effect of initial bolus plus continuous infusion on seizures/SE (EEG) (subjects with SE; all 5 subjects, 30 mg bolus, 85 mg/hr 2 h then 40 mg/hr 2 h, listed as GNX): immediate cessation of seizures; also recorded: immediate cessation of SE
subjects with seizure activity relapse when plasma GNX decreased <500 ng/mL (subjects with SE; original protocol, Captisol 35 g/day): 4 out of 5
metabolizing enzymes (CYP3A4/5): metabolized by CYP3A4/5
